Test results taken from patent publication US8785488B2 (Exelixis Patent Company LLC, priority 2009, dated 2014).

Each compound was assayed against T1, human TGR5 (h-TGR5) (Homo sapiens, UniProt Q8TDU6) (assay: TGR5/CRE-Luciferiase Assay (HEK 293 hTGR5/CRE-Luc cells)). Details: h-TGR5 CRE-Luc EC50, Table 1; read-out: CRE-Luc (EC50).
T1 construct: expressed in transfected cells
T1 sequence (Q8TDU6 1-330): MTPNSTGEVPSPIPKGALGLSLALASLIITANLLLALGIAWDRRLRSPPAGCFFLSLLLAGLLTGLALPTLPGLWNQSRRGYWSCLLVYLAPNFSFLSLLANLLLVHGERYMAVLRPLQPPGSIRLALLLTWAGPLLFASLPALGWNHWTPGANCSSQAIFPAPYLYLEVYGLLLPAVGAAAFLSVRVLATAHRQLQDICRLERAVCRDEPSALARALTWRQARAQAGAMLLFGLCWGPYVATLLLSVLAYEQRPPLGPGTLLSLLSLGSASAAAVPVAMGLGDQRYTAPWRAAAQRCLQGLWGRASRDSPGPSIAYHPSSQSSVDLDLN
Assay type: cell-based
In short: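 HEK293 cells stably carrying hTGR5 and a CRE-luciferase reporter were exposed to serially diluted compounds (diluted in DMEM with 5% DMSO) for 6 h. Cells were then lysed in luciferase buffer, luminescence was read, and EC50 values were derived from dose-response curves.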

Compound	EC50
CC(C)(c1ccc(Cl)c(Cl)c1)c1cnc(SCc2c(F)cccc2Cl)n1-c1ccc(Cl)cc1Cl [2-{[(2-chloro-6-fluorophenyl)methyl]thio}-1-(2,4-dichlorophenyl)-5-[1-(3,4-dichlorophenyl)-1-methylethyl]-1H-imidazole]	1000 to 10000 nM
CC(C)(c1ccc(F)cc1)c1cnc(SCc2c(F)cccc2Cl)n1-c1ccc(F)cc1 [2-{[(2-chloro-6-fluorophenyl)methyl]thio}-1-(4-fluorophenyl)-5-[1-(4-fluorophenyl)-1-methylethyl]-1H-imidazole]	100 to 1000 nM
CC(C)(c1ccc(S(C)(=O)=O)cc1)c1cnc(SCc2c(F)cccc2Cl)n1-c1ccc(F)cc1 [2-{[(2-chloro-6-fluorophenyl)methyl]thio}-1-(4-fluorophenyl)-5-{1-methyl-1-[4-(methylsulfonyl)phenyl]ethyl}-1H-imidazole]	100 to 1000 nM
CC(C)(c1ccc(C(F)(F)F)cc1)c1cnc(SCc2c(F)cccc2Cl)n1-c1ccc(F)cc1 [2-{[(2-chloro-6-fluorophenyl)methyl]thio}-1-(4-fluorophenyl)-5-{1-methyl-1-[4-(trifluoromethyl)phenyl]ethyl}-1H-imidazole]	100 to 1000 nM
CC(C)(c1ccc(Cl)c(Cl)c1)c1cnc(SCc2c(F)cccc2Cl)n1C1CCCC1 [2-{[(2-chloro-6-fluorophenyl)methyl]thio}-1-cyclopentyl-5-[1-(3,4-dichlorophenyl)-1-methylethyl]-1H-imidazole]	1000 to 10000 nM
CC(C)(c1ccc2c(c1)OCCO2)c1cnc(SCc2c(F)cccc2Cl)n1-c1ccc(F)cc1 [2-{[(2-chloro-6-fluorophenyl)methyl]thio}-5-[1-(2,3-dihydro-1,4-benzodioxin-6-yl)-1-methylethyl]-1-(4-fluorophenyl)-1H-imidazole]	< 100 nM
CC(C)n1c(C(C)(C)c2ccc(Cl)c(Cl)c2)cnc1SCc1c(F)cccc1Cl [2-{[(2-chloro-6-fluorophenyl)methyl]thio}-5-[1-(3,4-dichlorophenyl)-1-methylethyl]-1-(1-methylethyl)-1H-imidazole]	1000 to 10000 nM
CC(C)(c1ccc(Cl)c(Cl)c1)c1c(-c2ccccc2)nc(SCc2c(F)cccc2Cl)n1-c1ccc(F)cc1 [2-{[(2-chloro-6-fluorophenyl)methyl]thio}-5-[1-(3,4-dichlorophenyl)-1-methylethyl]-1-(4-fluorophenyl)-4-phenyl-1H-imidazole]	1000 to 10000 nM
CC(C)(c1ccc(Cl)c(Cl)c1)c1cnc(SCc2c(F)cccc2Cl)n1-c1ccc(F)cc1C(F)(F)F [2-{[(2-chloro-6-fluorophenyl)methyl]thio}-5-[1-(3,4-dichlorophenyl)-1-methylethyl]-1-[4-fluoro-2-(trifluoromethyl)phenyl]-1H-imidazole]	1000 to 10000 nM
CC(C)(c1ccc(F)c(F)c1)c1cnc(SCc2c(F)cccc2Cl)n1-c1ccc(F)cc1 [2-{[(2-chloro-6-fluorophenyl)methyl]thio}-5-[1-(3,4-difluorophenyl)-1-methylethyl]-1-(4-fluorophenyl)-1H-imidazole]	< 100 nM
CC(C)(c1ccc(Cl)cc1)c1cnc(SCc2c(F)cccc2Cl)n1-c1ccc(F)cc1 [2-{[(2-chloro-6-fluorophenyl)methyl]thio}-5-[1-(4-chlorophenyl)-1-methylethyl]-1-(4-fluorophenyl)-1H-imidazole]	100 to 1000 nM
Fc1ccc(-n2c(C(F)(F)c3ccc(Cl)c(Cl)c3)cnc2SCc2c(F)cccc2Cl)cc1 [2-{[(2-chloro-6-fluorophenyl)methyl]thio}-5-[(3,4-dichlorophenyl)(difluoro)methyl]-1-(4-fluorophenyl)-1H-imidazole]	1000 to 10000 nM
CC(C)(c1ccc(Cl)c(Cl)c1)c1cnc(COc2c(F)cccc2Cl)n1-c1ccc(F)cc1 [2-{[(2-chloro-6-fluorophenyl)oxy]methyl}-5-[1-(3,4-dichlorophenyl)-1-methylethyl]-1-(4-fluorophenyl)-1H-imidazole]	100 to 1000 nM
CC(C)(c1ccc(Cl)c(Cl)c1)c1cnc(S(=O)(=O)Cc2ccc(F)c(Cl)c2)n1-c1ccc(F)cc1 [2-{[(3-chloro-4-fluorophenyl)methyl]sulfonyl}-5-[1-(3,4-dichlorophenyl)-1-methylethyl]-1-(4-fluorophenyl)-1H-imidazole]	100 to 1000 nM
CC(C)(c1ccc(Cl)c(Cl)c1)c1cnc(C(O)CCc2ccc(Cl)cc2Cl)n1-c1ccc(F)cc1 (stereo not drawn) [3-(2,4-dichlorophenyl)-1-{5-[1-(3,4-dichlorophenyl)-1-methylethyl]-1-(4-fluorophenyl)-1H-imidazol-2-yl}propan-1-ol]	1000 to 10000 nM
CC(C)(c1ccc(Cl)c(Cl)c1)c1cnc(C(=O)CCc2ccc(Cl)cc2Cl)n1-c1ccc(F)cc1 [3-(2,4-dichlorophenyl)-1-{5-[1-(3,4-dichlorophenyl)-1-methylethyl]-1-(4-fluorophenyl)-1H-imidazol-2-yl}propan-1-one]	1000 to 10000 nM
CC(C)(c1ccc(Cl)c(OCCCO)c1)c1cnc(SCc2c(F)cccc2Cl)n1-c1ccc(F)cc1 [3-[(2-chloro-5-{1-[2-{[(2-chloro-6-fluorophenyl)methyl]thio}-1-(4-fluorophenyl)-1H-imidazol-5-yl]-1-methylethyl}phenyl)oxy]propan-1-ol]	100 to 1000 nM

The remaining lines, values ahead:

EC50	Compound
100 to 1000 nM	CC(C)(c1ccc(Cl)c(Cl)c1)c1cnc(SCC2CCCN(S(C)(=O)=O)C2)n1-c1ccc(F)cc1 (stereo not drawn) [3-[({5-[1-(3,4-dichlorophenyl)-1-methylethyl]-1-(4-fluorophenyl)-1H-imidazol-2-yl}thio)methyl]-1-(methylsulfonyl)piperidine]
1000 to 10000 nM	CC(C)(c1ccc(Cl)c(Cl)c1)c1cnc(COc2ncc(C(F)(F)F)cc2Cl)n1-c1ccc(F)cc1 [3-chloro-2-[({5-[1-(3,4-dichlorophenyl)-1-methylethyl]-1-(4-fluorophenyl)-1H-imidazol-2-yl}methyl)oxy]-5-(trifluoromethyl)pyridine]
100 to 1000 nM	CC(C)(c1ccc(Cl)c(Cl)c1)c1cnc(SCc2c(Cl)cccc2C(=O)O)n1-c1ccc(F)cc1 [3-chloro-2-[({5-[1-(3,4-dichlorophenyl)-1-methylethyl]-1-(4-fluorophenyl)-1H-imidazol-2-yl}thio)methyl]benzoic acid]
100 to 1000 nM	CC(C)(c1ccc(Cl)c(Cl)c1)c1cnc(CCc2c(F)cc(C(=O)O)cc2Cl)n1-c1ccc(F)cc1 [3-chloro-4-(2-{5-[1-(3,4-dichlorophenyl)-1-methylethyl]-1-(4-fluorophenyl)-1H-imidazol-2-yl}ethyl)-5-fluorobenzoic acid]
1000 to 10000 nM	CC(C)(c1ccc(Cl)c(Cl)c1)c1cnc(CCc2ccc(S(=O)(=O)NC(=O)NN3CCCC3)cc2Cl)n1-c1ccc(F)cc1 [3-chloro-4-(2-{5-[1-(3,4-dichlorophenyl)-1-methylethyl]-1-(4-fluorophenyl)-1H-imidazol-2-yl}ethyl)-N-[(pyrrolidin-1-ylamino)carbonyl]benzenesulfonamide]
1000 to 10000 nM	CC(C)(c1ccc(S(C)(=O)=O)cc1)c1cnc(SCc2ccc(S(=O)(=O)NC(=O)NN3CCCC3)cc2Cl)n1-c1ccc(F)cc1 [3-chloro-4-({[1-(4-fluorophenyl)-5-{1-methyl-1-[4-(methylsulfonyl)phenyl]ethyl}-1H-imidazol-2-yl]thio}methyl)-N-[(pyrrolidin-1-ylamino)carbonyl]benzenesulfonamide]
1000 to 10000 nM	CC(C)(c1ccc(S(C)(=O)=O)cc1)c1cnc(SCc2ccc(S(=O)(=O)NC(=O)NN3CCCC3)cc2Cl)n1-c1ccc(F)cn1 [3-chloro-4-({[1-(5-fluoropyridin-2-yl)-5-{1-methyl-1-[4-(methylsulfonyl)phenyl]ethyl}-1H-imidazol-2-yl]thio}methyl)-N-[(pyrrolidin-1-ylamino)carbonyl]benzenesulfonamide]
< 100 nM	COc1c(Cl)cc(C(C)(C)c2cnc(SCc3ccc(S(N)(=O)=O)cc3Cl)n2-c2ccc(F)cc2)cc1Cl [3-chloro-4-({[5-{1-[3,5-dichloro-4-(methyloxy)phenyl]-1-methylethyl}-1-(4-fluorophenyl)-1H-imidazol-2-yl]thio}methyl)benzenesulfonamide]
1000 to 10000 nM	CC(C)(c1ccc(F)cc1)c1cnc(SCc2ccc(S(=O)(=O)NC(=O)NN3CCCC3)cc2Cl)n1-c1ccc(F)c(F)c1 [3-chloro-4-[({1-(3,4-difluorophenyl)-5-[1-(4-fluorophenyl)-1-methylethyl]-1H-imidazol-2-yl}thio)methyl]-N-[(pyrrolidin-1-ylamino)carbonyl]benzenesulfonamide]
100 to 1000 nM	CCN(CC)CCOc1cc(-n2c(C(C)(C)c3ccc(Cl)c(Cl)c3)cnc2SCc2c(F)cc(C(=O)O)cc2Cl)ccc1F [3-chloro-4-[({5-[1-(3,4-dichlorophenyl)-1-methylethyl]-1-(3-{[2-(diethylamino)ethyl]oxy}-4-fluorophenyl)-1H-imidazol-2-yl}thio)methyl]-5-fluorobenzoic acid]
1000 to 10000 nM	CC(C)(c1ccc(Cl)c(Cl)c1)c1cnc(COc2ccc(C(=O)O)cc2Cl)n1-c1ccc(F)cc1 [3-chloro-4-[({5-[1-(3,4-dichlorophenyl)-1-methylethyl]-1-(4-fluorophenyl)-1H-imidazol-2-yl}methyl)oxy]benzoic acid]
100 to 1000 nM	CC(C)(c1ccc(Cl)c(Cl)c1)c1cnc(SCc2ccc(C(N)=O)cc2Cl)n1-c1ccc(F)cc1 [3-chloro-4-[({5-[1-(3,4-dichlorophenyl)-1-methylethyl]-1-(4-fluorophenyl)-1H-imidazol-2-yl}thio)methyl]benzamide]
100 to 1000 nM	CC(C)(c1ccc(Cl)c(Cl)c1)c1cnc(SCc2ccc(C(=N)N)cc2Cl)n1-c1ccc(F)cc1 [3-chloro-4-[({5-[1-(3,4-dichlorophenyl)-1-methylethyl]-1-(4-fluorophenyl)-1H-imidazol-2-yl}thio)methyl]benzenecarboximidamide]
